Patent US6858638B2, “Substituted indazoles, compositions containing them, method of production and use” (Aventis Pharma S.A., priority 2002, dated 2005)

Tests used:
human KDR enzyme = biological target: T1, human KDR enzyme (Homo sapiens, UniProt P35968); experiment: KDR substrate (PLCγ) phosphorylation, scintillation assay; assay type: biochemical; details: 10 μM; for inhibition at 10 µM: read-out: KDR % inhib at 10 μM
T1 construct: The cytoplasmic domain of the human KDR enzyme; GST; made in house; host or cells: SF21 insect cells (baculovirus)
Procedure, shortened: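 GST-fused human KDR cytoplasmic domain from SF21 cells (about 60% pure, 100 ng) phosphorylated 2 μg of GST-PLCγ SH2-SH3 fragment. The trigger solution held γ33P-ATP with 2 μM cold ATP, in MOPS buffer pH 7.2 with Mg2+, Mn2+, vanadate and NaF. Reactions ran 1 h at 37 °C, were stopped with EDTA and counted by scintillation; results are % inhibition versus the no-compound control.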

human FAK = biological target: T2, human FAK (Homo sapiens, UniProt Q05397); experiment: FAK autophosphorylation inhibition, time resolved fluorescence (HTRF) assay; assay type: biochemical; details: for inhibition at 30 µM: 30 μM (values marked *), read-out: FAK % inhib at 30* μM; for inhibition at 10 µM: read-out: FAK % inhib at 10 μM
T2 construct: The complete cDNA of human FAK; made in house; host or cells: baculovirus expression system (vector pFastBac HTc)
Procedure, shortened: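 His-tagged full-length human FAK from baculovirus (6.6 µg/ml) self-phosphorylates with 15 µM ATP in HEPES pH 7.2, MgCl2, vanadate, 1 h at 37 °C. HTRF detection (Eu-anti-phosphotyrosine / XL665-anti-His), 665/620 nm ratio; % inhibition vs untreated control, duplicate mean.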

Aurora2 kinase = biological target: T3, Aurora2 kinase (Homo sapiens, UniProt O14965); experiment: Aurora2 kinase radioactivity scintillation assay using nickel chelate (NuMA substrate); assay type: biochemical; details: 10 μM; for inhibition at 10 µM: read-out: Aurora2 % inhib at 10 μM
T3 construct: A complete recombinant Aurora2 enzyme; His tag (N); made in house; host or cells: E. coli
T3 sequence (O14965 1-403): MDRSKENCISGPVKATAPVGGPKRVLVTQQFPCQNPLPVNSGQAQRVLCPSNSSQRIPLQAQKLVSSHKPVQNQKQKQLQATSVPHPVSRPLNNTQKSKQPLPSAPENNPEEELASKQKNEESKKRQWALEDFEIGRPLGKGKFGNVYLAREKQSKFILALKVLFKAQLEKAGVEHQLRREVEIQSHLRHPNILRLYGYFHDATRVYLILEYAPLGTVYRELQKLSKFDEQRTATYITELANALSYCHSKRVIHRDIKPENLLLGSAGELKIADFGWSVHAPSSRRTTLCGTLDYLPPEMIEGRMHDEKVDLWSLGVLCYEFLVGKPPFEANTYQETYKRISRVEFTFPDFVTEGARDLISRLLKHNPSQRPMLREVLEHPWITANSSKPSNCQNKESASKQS
Procedure, shortened: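 His-tagged full-length Aurora2 (0.02 μM, E. coli) phosphorylating His-tagged NuMA C-terminal fragment (0.5 μM) with 1 μM ATP plus [33P]-ATP, 30 min at 37 °C, pH 7.5 Tris buffer with MgCl2. Nickel-chelate scintillation read; percent inhibition versus no-compound control.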

c-Src protein = experiment: Src kinase phosphorylation of biotinylated cdc2 substrate, fluorescence (DELFIA); assay type: biochemical, human
Description: The inhibition of the Src kinase is evaluated by measuring the phosphorylation of the biotinylated cdc2 substrate (Pierce) detected by fluorescence (DELFIA) using an antiphosphotyrosine antibody labeled with Europium, in 96-well Wallac plates. The c-Src protein used is a recombinant human protein produced in Baculovirus, comprising the SH3 and SH2 and the catalytic domains. The enzyme, the substrate and the various concentrations of test compounds are placed in the well in a 50 mM Tris buffer containing 10 mM MgCl2. The reaction is initiated by adding 10 μM of ATP. After incubation for 60 minutes at 30° C., the reaction is stopped by adding 75 mM EDTA. 50 μl are taken from each well and transferred into a plate coated with streptavidin. After incubation for 30 minutes at 25° C., the wells are washed with a washing buffer (Wallac) and then the antiphosphotyrosine antibody (PY20-Europium [Perkin Elmer]) is added in a volume of 75 μl. The plate is incubated for 30 minutes at 25° C. and then an “Enhancer” solution (Wallac) is added before reading the fluorescence using a fluorimeter (Perkin Elmer). The background noise is evaluated in triplicate in wells containing the substrate and the antibody in the absence of enzyme. The activity of the enzyme is measured (in triplicate) in the wells containing all the reagents in the absence of compound. The inhibition of the Src activity is expressed as percentage inhibition of the activity of the control determined in the absence of compound. The compound PP2 (Calbiochem) is included at various concentrations in each experiment as an inhibition control.

[1] = biological target: T4, human IGF1R cytoplasmic domain (Homo sapiens, UniProt P08069); experiment: IGF1R autophosphorylation inhibition, time resolved fluorescence (HTRF) assay; assay type: biochemical; details: 10 μM
T4 construct: The human IGF1R cytoplasmic domain was cloned; made in house; host or cells: SF21 insect cells (baculovirus)
Procedure, shortened: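 GST-tagged human IGF1R cytoplasmic domain from SF21 cells incubated with compound in 50 mM Hepes pH 7.5, 5 mM MnCl2, 50 mM NaCl, […] ATP. Autophosphorylation detected by HTRF (Eu-K anti-phosphotyrosine, XL665 anti-GST) after EDTA/KF stop; percentage inhibition versus no-compound control.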

[2] = 10 μM (values without asterisk)

T1 sequence (P35968 786-1356 limits assumed): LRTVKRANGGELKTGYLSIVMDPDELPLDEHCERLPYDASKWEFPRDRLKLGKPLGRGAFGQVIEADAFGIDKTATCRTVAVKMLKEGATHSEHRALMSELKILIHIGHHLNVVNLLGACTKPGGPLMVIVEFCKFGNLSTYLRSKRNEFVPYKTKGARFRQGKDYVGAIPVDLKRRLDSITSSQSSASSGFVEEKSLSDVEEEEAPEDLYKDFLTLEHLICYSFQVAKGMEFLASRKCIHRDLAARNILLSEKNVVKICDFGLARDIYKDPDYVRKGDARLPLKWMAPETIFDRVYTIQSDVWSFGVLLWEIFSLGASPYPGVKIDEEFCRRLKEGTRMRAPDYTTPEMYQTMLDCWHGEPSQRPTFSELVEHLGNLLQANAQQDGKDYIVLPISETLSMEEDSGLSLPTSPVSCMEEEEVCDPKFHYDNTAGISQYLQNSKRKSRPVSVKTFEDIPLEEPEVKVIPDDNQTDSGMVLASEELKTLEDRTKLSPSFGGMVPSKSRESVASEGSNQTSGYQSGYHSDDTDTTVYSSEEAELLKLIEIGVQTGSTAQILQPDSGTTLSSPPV
T2 sequence (Q05397 whole entry): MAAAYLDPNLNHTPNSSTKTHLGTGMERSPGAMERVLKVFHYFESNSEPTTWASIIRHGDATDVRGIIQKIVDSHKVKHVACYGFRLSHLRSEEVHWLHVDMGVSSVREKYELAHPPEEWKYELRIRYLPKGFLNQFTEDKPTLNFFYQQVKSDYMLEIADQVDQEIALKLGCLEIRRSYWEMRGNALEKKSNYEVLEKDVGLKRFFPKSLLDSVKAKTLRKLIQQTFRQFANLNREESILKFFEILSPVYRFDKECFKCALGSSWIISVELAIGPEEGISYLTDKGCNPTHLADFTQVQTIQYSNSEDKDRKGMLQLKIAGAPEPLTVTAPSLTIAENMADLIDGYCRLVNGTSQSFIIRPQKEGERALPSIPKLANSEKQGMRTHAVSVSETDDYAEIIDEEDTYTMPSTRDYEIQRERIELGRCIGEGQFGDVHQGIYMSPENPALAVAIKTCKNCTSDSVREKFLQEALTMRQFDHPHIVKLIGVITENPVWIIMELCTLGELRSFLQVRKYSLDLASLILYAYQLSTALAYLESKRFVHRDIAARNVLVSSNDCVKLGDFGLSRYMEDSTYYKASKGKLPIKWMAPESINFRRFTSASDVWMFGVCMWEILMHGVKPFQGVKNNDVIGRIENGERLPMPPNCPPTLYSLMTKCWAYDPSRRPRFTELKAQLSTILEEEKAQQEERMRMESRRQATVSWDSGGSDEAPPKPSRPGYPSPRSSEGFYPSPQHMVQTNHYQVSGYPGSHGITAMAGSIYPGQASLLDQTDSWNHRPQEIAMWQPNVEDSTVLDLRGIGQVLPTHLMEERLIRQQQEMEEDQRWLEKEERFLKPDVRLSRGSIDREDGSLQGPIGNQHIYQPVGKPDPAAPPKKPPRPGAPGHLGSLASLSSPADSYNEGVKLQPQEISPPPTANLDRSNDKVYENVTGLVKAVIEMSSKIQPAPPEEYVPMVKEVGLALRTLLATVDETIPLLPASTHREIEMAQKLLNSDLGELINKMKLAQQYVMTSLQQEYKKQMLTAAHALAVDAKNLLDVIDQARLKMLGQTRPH
T4 sequence (P08069 960-1367 limits assumed): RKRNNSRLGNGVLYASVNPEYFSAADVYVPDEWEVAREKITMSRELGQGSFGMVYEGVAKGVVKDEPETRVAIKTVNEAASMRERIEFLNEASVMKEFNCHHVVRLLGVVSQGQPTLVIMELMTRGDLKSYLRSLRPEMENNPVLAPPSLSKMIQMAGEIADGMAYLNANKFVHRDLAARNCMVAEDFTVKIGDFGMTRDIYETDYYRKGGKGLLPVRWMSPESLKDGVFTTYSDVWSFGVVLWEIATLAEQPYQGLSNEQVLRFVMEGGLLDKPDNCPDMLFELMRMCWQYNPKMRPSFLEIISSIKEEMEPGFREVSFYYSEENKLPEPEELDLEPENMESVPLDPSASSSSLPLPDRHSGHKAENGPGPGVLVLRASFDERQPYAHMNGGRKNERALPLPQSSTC

| Compound | melting point [°C] | inhibition at 10 µM (human KDR enzyme) [%] | inhibition at 30 µM (human FAK) [%] | inhibition at 10 µM (Aurora2 kinase) [%] | inhibition at 10 µM (human FAK; [2]) [%] | SRC % inhib at 10 μM (c-Src protein) [%] | KDR % inhib at 10 μM (human KDR enzyme) [%] | Aurora2 % inhib at 10 μM (Aurora2 kinase) [%] | FAK % inhib at 10 μM (human FAK; 10 μM (values without asterisk), 10 µM) [%] | IGF1R % inhib at 10 μM [1] [%] |
| --- | --- | --- | --- | --- | --- | --- | --- | --- | --- | --- |
| N#Cc1n[nH]c2ccc(NS(=O)(=O)c3cccc(F)c3)cc12 [Example 4, N-(3-Cyano-1H-indazol-5-yl)-3-fluorobenzenesulfonamide] | 227 | 24 | 85 |  |  |  |  |  |  |  |
| CS(=O)(=O)c1ccccc1S(=O)(=O)Nc1ccc2[nH]nc(C(=O)Nc3ccccc3)c2c1 [Example 18, N-Phenyl-5-(2-methylsulfonylbenzenesulfonylamino)-1H-indazole-3-carboxamide] | 258 | 18 |  | 97 | 89 |  |  |  |  |  |
| O=C(Nc1n[nH]c2ccc(NS(=O)(=O)c3cccc(F)c3)cc12)c1ccccc1 [Example 23, N-[5-(3-Fluorobenzenesulfonylamino)-1H-indazol-3-yl]benzamide] | 225 |  |  | 99 | 93 |  |  |  |  |  |
| O=S(=O)(Nc1ccc2[nH]ncc2c1)c1ccccc1 [Example 24, N-(1H-Indazol-5-yl)benzenesulfonamide] | 179 | 10 |  | 60 | 76 |  |  |  |  |  |
| Cc1n[nH]c2ccc(NS(=O)(=O)c3ccc(Cl)c(Cl)c3)cc12 [Example 25, 3,4-Dichloro-N-(3-methyl-1H-indazol-5-yl)benzenesulfonamide] | 184 | 11 | 38 | 50 |  |  |  |  |  |  |
| COc1ccc(-c2n[nH]c3ccc(NS(=O)(=O)c4ccccc4)cc23)cc1 [Example 31, N-[3-(4-Methoxyphenyl)-1H-indazol-5-yl]benzenesulfonamide] | 172 | 98 |  | 90 | 75 |  |  |  |  |  |
| CS(=O)(=O)c1ccccc1S(=O)(=O)Nc1ccc2[nH]nc(Br)c2c1 [Example 38, N-(3-Bromo-1H-indazol-5-yl)-2-methylsulfonylbenzenesulfonamide] |  | 3 |  | 86 | 69 | 56 |  |  |  |  |
| CC(=O)Nc1ccccc1-c1n[nH]c2ccc(NS(=O)(=O)c3ccccc3S(C)(=O)=O)cc12 [Example 48, N-{2-[5-(2-Methylsulfonylbenzenesulfonylamino)-1H-indazol-3-yl]phenyl}acetamide] | 245 | 9 |  | 42 | 5 |  |  |  |  |  |
| CS(=O)(=O)c1ccccc1S(=O)(=O)Nc1ccc2[nH]nc(-c3cccs3)c2c1 [Example 50, 2-Methylsulfonyl-N-(3-thiophen-2-yl-1H-indazol-5-yl)benzenesulfonamide] | 246 |  |  |  |  |  | 80 | 91 | 99 | 63 |
| CS(=O)(=O)c1ccccc1S(=O)(=O)Nc1ccc2[nH]nc(-c3ccsc3)c2c1 [Example 51, 2-Methylsulfonyl-N-(3-thiophen-3-yl-1H-indazol-5-yl)benzenesulfonamide] | 249 | 55 |  | 88 | 90 |  |  |  |  |  |
| CS(=O)(=O)c1ccccc1S(=O)(=O)Nc1ccc2[nH]nc(-c3ccc([N+](=O)[O-])cc3)c2c1 [Example 66, N-[3-(4-Nitrophenyl)-1H-indazol-5-yl]-2-methylsulfonylbenzenesulfonamide] |  | 20 |  | 100 | 75 | 90 |  |  |  |  |
| COC(=O)c1ccc(-c2n[nH]c3ccc(NS(=O)(=O)c4ccccc4S(C)(=O)=O)cc23)cc1 [Example 68, Methyl 4-[5-(2-methylsulfonylbenzenesulfonamino)-1H-indazol-3-yl]benzoate] | 244 | 85 |  | 95 | 91 |  |  |  |  |  |
| CS(=O)(=O)c1ccccc1S(=O)(=O)Nc1ccc2[nH]nc(CCc3ccc(F)cc3)c2c1 [Example 75, N-{3-[2-(4-Fluorophenyl)ethyl]-1H-indazol-5-yl}-2-methylsulfonylbenzenesulfonamide] | 234 | 35 |  | 87 | 82 |  |  |  |  |  |
| CS(=O)(=O)c1ccccc1S(=O)(=O)Nc1ccc2[nH]nc(CCc3ccc(Cl)cc3)c2c1 [Example 77, N-{3-[2-(4-Chlorophenyl)ethyl]-1H-indazol-5-yl}-2-methylsulfonylbenzenesulfonamide] | 215 | 36 |  | 93 | 73 |  |  |  |  |  |
| CS(=O)(=O)c1ccccc1S(=O)(=O)Nc1ccc2[nH]nc(/C=C/C(=O)O)c2c1.Cl [Example 80, (E)-3-[5(2-Methylsulfonylbenzenesulfonylamino)-1H-indazol-3-yl]-acrylic acid] | 170 | 32 |  | 89 | 66 |  |  |  |  |  |
| CS(=O)(=O)c1ccccc1S(=O)(=O)Nc1ccc2[nH]nc(CCc3ccccc3)c2c1 [Example 90, 2-Methylsulfonyl-N-(3-phenethyl-1H-indazol-5-yl)benzenesulfonamide] | 192 | 45 |  | 100 | 89 |  |  |  |  |  |
| Nc1cccc(S(=O)(=O)Nc2ccc3[nH]nc(-c4ccccc4)c3c2)c1 [Example 98, 3-Amino-N-(3-phenyl-1H-indazol-5-yl)benzenesulfonamide] |  | 91 |  | 94 | 53 | 78 |  |  |  |  |
| O=S(=O)(Nc1ccc2[nH]nc(-c3ccccc3)c2c1)C1CCCCC1 [Example 99, N-(3-Phenyl-1H-indazol-5-yl)cyclohexanesulfonamide] | 160 | 46 |  | 79 | 44 |  |  |  |  |  |
| O=S(=O)(Nc1ccc2[nH]nc(-c3ccccc3)c2c1)c1cccc(C(F)(F)F)c1 [Example 130, 3-Trifluoromethyl-N-(3-phenyl-1H-indazol-5-yl)-benzenesulfonamide] |  | 94 |  | 69 | 26 | 18 |  |  |  |  |
| O=S(=O)(Nc1ccc2[nH]nc(-c3ccccc3)c2c1)c1cccc(Cl)c1 [Example 136, 3-Chloro-N-(3-phenyl-1H-indazol-5-yl)-benzenesulfonamide] |  | 98 |  | 85 | 59 | 62 |  |  |  |  |
